Source: patent publication US20130157954A1, “METHODS FOR TREATMENT OR PROPHYLAXIS OF KIDNEY OR LIVER DYSFUNCTION” (NPS PHARMACEUTICALS, INC., priority 2010, published 2013)

Experiment: Example 1: kidney biomarkers (urea nitrogen, creatinine, GFR) in short bowel syndrome patients, every four weeks for 24 weeks; also sorted by >5% change from baseline
Format: in vivo, Human
Settings: 0.05 mg/kg/day
Experimental: Human patients with short bowel syndrome were divided into three groups: a control group (16 total individuals) to receive placebo, an experimental group (35 total individuals) to receive teduglutide at 0.05 mg/kg/day throughout the study, and an experimental group (32 total individuals) to receive teduglutide at 0.1 mg/kg/day throughout the study. Patients were treated by subcutaneous injection of placebo or the appropriate dose of teduglutide. As individuals with short bowel syndrome are likely to experience associated liver and kidney disease, known biomarkers of liver and kidney function were monitored every four weeks, for 24 weeks. The liver biomarkers tested included total bilirubin, ALT and AST and ALP. The kidney biomarkers tested included urea nitrogen, creatinine and GFR. Before administration of placebo or teduglutide, diagnostic biomarker levels were tested to establish a baseline for each individual.
To visualize the effect of GLP-2 on the levels of the diagnostic biomarkers, the average change from baseline was calculated for the placebo and teduglutide treated groups for each visit after a baseline was established. The average change from baseline of each group is depicted in FIGS. 1-7. The numerical figures for each diagnostic biomarker at each time point are depicted in Table 1.
The raw data for this sorting is reproduced in Table 2 below.

In the case of `CC[C@H](C)[C@H](NC(=O)[C@H](Cc1ccccc1)NC(=O)[C@H](CC(=O)O)NC(=O)[C@H](CCCNC(=N)N)NC(=O)[C@H](C)NC(=O)[C@H](C)NC(=O)[C@H](CC(C)C)NC(=O)[C@H](CC(N)=O)NC(=O)[C@H](CC(=O)O)NC(=O)[C@H](CC(C)C)NC(=O)[C@@H](NC(=O)[C@@H](NC(=O)[C@H](CC(N)=O)NC(=O)[C@H](CCSC)NC(=O)[C@H](CCC(=O)O)NC(=O)[C@H](CC(=O)O)NC(=O)[C@H](CO)NC(=O)[C@H](Cc1ccccc1)NC(=O)[C@H](CO)NC(=O)CNC(=O)[C@H](CC(=O)O)NC(=O)CNC(=O)[C@@H](N)Cc1c[nH]cn1)[C@@H](C)O)[C@@H](C)CC)C(=O)N[C@@H](CC(N)=O)C(=O)N[C@@H](Cc1c[nH]c2ccccc12)C(=O)N[C@@H](CC(C)C)C(=O)N[C@H](C(=O)N[C@@H](CCC(N)=O)C(=O)N[C@H](C(=O)N[C@@H](CCCCN)C(=O)N[C@H](C(=O)N[C@H](C(=O)N[C@@H](CC(=O)O)C(=O)O)[C@@H](C)O)[C@@H](C)CC)[C@@H](C)O)[C@@H](C)CC` [teduglutide], the “CREATININE (RATE BLANKED) change from baseline >5%, number of patients” value (week 12) is reported as 16, the “CREATININE (RATE BLANKED) change from baseline >5%, percent of patients” value (week 12) is reported as “(45.7%)” and the “CREATININE (RATE BLANKED) change from baseline −5% <= and <=5%, number of patients” value (week 12) is reported as 4. The “CREATININE (RATE BLANKED) change from baseline −5% <= and <=5%, percent of patients” value (week 12) was “(11.4%)”, the “GFR change from baseline <−5%, number of patients” value (week 12) was 15 and the “GFR change from baseline <−5%, percent of patients” value (week 12) was “(42.9%)”. For the same compound, the “GFR change from baseline >5%, number of patients” value (week 12) was 6, the “GFR change from baseline >5%, percent of patients” value (week 12) was “(17.1%)” and the “GFR change from baseline −5% <= and <=5%, number of patients” value (week 12) was 5. The “GFR change from baseline −5% <= and <=5%, percent of patients” value (week 12) was “(14.3%)”, the “UREA NITROGEN change from baseline <−5%, number of patients” value (week 12) was 17 and the “UREA NITROGEN change from baseline <−5%, percent of patients” value (week 12) was “(48.6%)”. The “UREA NITROGEN change from baseline >5%, number of patients” value (week 12) was 6, the “UREA NITROGEN change from baseline >5%, percent of patients” value (week 12) was “(17.1%)” and the “UREA NITROGEN change from baseline −5% <= and <=5%, number of patients” value (week 12) was 4. The “UREA NITROGEN change from baseline −5% <= and <=5%, percent of patients” value (week 12) was “(11.4%)”, the “CREATININE (RATE BLANKED) change from baseline <−5%, number of patients” value (week 16) was 8 and the “CREATININE (RATE BLANKED) change from baseline <−5%, percent of patients” value (week 16) was “(22.9%)”. The “CREATININE (RATE BLANKED) change from baseline >5%, number of patients” value (week 16) was 8, the “CREATININE (RATE BLANKED) change from baseline >5%, percent of patients” value (week 16) was “(22.9%)” and the “CREATININE (RATE BLANKED) change from baseline −5% <= and <=5%, number of patients” value (week 16) was 12. The “CREATININE (RATE BLANKED) change from baseline −5% <= and <=5%, percent of patients” value (week 16) was “(34.3%)”, the “GFR change from baseline <−5%, number of patients” value (week 16) was 7 and the “GFR change from baseline <−5%, percent of patients” value (week 16) was “(20.0%)”. For the same compound, the “GFR change from baseline >5%, number of patients” value (week 16) was 11, the “GFR change from baseline >5%, percent of patients” value (week 16) was “(31.4%)” and the “GFR change from baseline −5% <= and <=5%, number of patients” value (week 16) was 10. For the same compound, the “GFR change from baseline −5% <= and <=5%, percent of patients” value (week 16) was “(28.6%)”, the “UREA NITROGEN change from baseline <−5%, number of patients” value (week 16) was 12 and the “UREA NITROGEN change from baseline <−5%, percent of patients” value (week 16) was “(34.3%)”. For the same compound, the “UREA NITROGEN change from baseline >5%, number of patients” value (week 16) was 10, the “UREA NITROGEN change from baseline >5%, percent of patients” value (week 16) was “(28.6%)” and the “UREA NITROGEN change from baseline −5% <= and <=5%, number of patients” value (week 16) was 6. The “UREA NITROGEN change from baseline −5% <= and <=5%, percent of patients” value (week 16) was “(17.1%)”, the “CREATININE (RATE BLANKED) change from baseline <−5%, number of patients” value (week 20) was 9 and the “CREATININE (RATE BLANKED) change from baseline <−5%, percent of patients” value (week 20) was “(25.7%)”. The “CREATININE (RATE BLANKED) change from baseline >5%, number of patients” value (week 20) was 10, the “CREATININE (RATE BLANKED) change from baseline >5%, percent of patients” value (week 20) was “(28.6%)” and the “CREATININE (RATE BLANKED) change from baseline −5% <= and <=5%, number of patients” value (week 20) was 8. For the same compound, the “CREATININE (RATE BLANKED) change from baseline −5% <= and <=5%, percent of patients” value (week 20) was “(22.9%)”, the “GFR change from baseline <−5%, number of patients” value (week 20) was 10 and the “GFR change from baseline <−5%, percent of patients” value (week 20) was “(28.6%)”. The “GFR change from baseline >5%, number of patients” value (week 20) was 10, the “GFR change from baseline >5%, percent of patients” value (week 20) was “(28.6%)” and the “GFR change from baseline −5% <= and <=5%, number of patients” value (week 20) was 7. The “GFR change from baseline −5% <= and <=5%, percent of patients” value (week 20) was “(20.0%)”, the “UREA NITROGEN change from baseline <−5%, number of patients” value (week 20) was 13 and the “UREA NITROGEN change from baseline <−5%, percent of patients” value (week 20) was “(37.1%)”. The “UREA NITROGEN change from baseline >5%, number of patients” value (week 20) was 7, the “UREA NITROGEN change from baseline >5%, percent of patients” value (week 20) was “(20.0%)” and the “UREA NITROGEN change from baseline −5% <= and <=5%, number of patients” value (week 20) was 7. For the same compound, the “UREA NITROGEN change from baseline −5% <= and <=5%, percent of patients” value (week 20) was “(20.0%)”, the “CREATININE (RATE BLANKED) change from baseline <−5%, number of patients” value (week 24) was 8 and the “CREATININE (RATE BLANKED) change from baseline <−5%, percent of patients” value (week 24) was “(22.9%)”. For the same compound, the “CREATININE (RATE BLANKED) change from baseline >5%, number of patients” value (week 24) was 9, the “CREATININE (RATE BLANKED) change from baseline >5%, percent of patients” value (week 24) was “(25.7%)” and the “CREATININE (RATE BLANKED) change from baseline −5% <= and <=5%, number of patients” value (week 24) was 9. The “CREATININE (RATE BLANKED) change from baseline −5% <= and <=5%, percent of patients” value (week 24) was “(25.7%)”, the “GFR change from baseline <−5%, number of patients” value (week 24) was 8 and the “GFR change from baseline <−5%, percent of patients” value (week 24) was “(22.9%)”. The “GFR change from baseline >5%, number of patients” value (week 24) was 10, the “GFR change from baseline >5%, percent of patients” value (week 24) was “(28.6%)” and the “GFR change from baseline −5% <= and <=5%, number of patients” value (week 24) was 8. For the same compound, the “GFR change from baseline −5% <= and <=5%, percent of patients” value (week 24) was “(22.9%)”, the “UREA NITROGEN change from baseline <−5%, number of patients” value (week 24) was 17 and the “UREA NITROGEN change from baseline <−5%, percent of patients” value (week 24) was “(48.6%)”. For the same compound, the “UREA NITROGEN change from baseline >5%, number of patients” value (week 24) was 7, the “UREA NITROGEN change from baseline >5%, percent of patients” value (week 24) was “(20.0%)” and the “UREA NITROGEN change from baseline −5% <= and <=5%, number of patients” value (week 24) was 2. The “UREA NITROGEN change from baseline −5% <= and <=5%, percent of patients” value (week 24) was “(5.7%)”.
